# Laboratory results taken from patent publication US10695330B2, “Methods of treatment” (Global Blood Therapeutics, Inc., priority 2015, dated 2020).
# Experiments:
# [1] = tested on: macrophages; test: Production of TNF-α and IL-6 by macrophages; assay type: cell-based; settings: in vitro
# Description: Reactive oxygen species (ROS) released from activated white blood cells cause lung injury as well as fibrotic changes in patients with IPF. […] Thus, the compounds described herein could also provide a method to inhibit the adverse effects of inflammation in a patient. Reduction in systemic pro-inflammatory cytokines (tumor necrosis alpha and interleukin-6) also has the potential to exert a broad anti-inflammatory effect which would supplement the beneficial effect of alleviation of hypoxemia via increased hemoglobin-O2 affinity.
# [2] = tested on: healthy mice subjected to extreme hypoxia; test: Tolerance to hypoxia mouse model: systemic parameters, tissue hypoxia, survival; assay type: in vivo; settings: for survival: after 1.5 hours of exposure to 5% O2 hypoxia
# Protocol: Male, C57BL mice were fitted with a dorsal skinfold window chamber for direct visualization of an intact microvascular bed (Yalcin & Cabrales 2012). After the window chamber was implanted, the animals were left to recover for at least 2 days, before undergoing surgery a second time for arterial (carotid) catheter implantation (PESO tubing). After two day of recovery, mice were dosed orally with Compound 1 (70 or 140 mg/kg) or vehicle only and Hb O2 affinity was determined by hemoximetry. Two hours post dose, conscious mice were placed in a restraining tube with a longitudinal slit from which the protruding window chamber provided a microscopic stage for observation. In this setup, gas flow rate (0.2 L/min) into the tube is diffused by a cotton filter barrier. Baseline measurements for normoxia (21% O2) were completed within an hour of restraining mice. The animals were then exposed to stepwise hypoxia by decreasing the O2 concentration to 15, 10 and 5%. Animals were kept at each hypoxic level for 30 min. Mice were allowed 15 min of acclimatization at each new hypoxic level before measurements were taken. During hypoxia, changes in systemic and microvascular hemodynamics, blood gases, blood lactate, tissue partial pressure of O2 (PO2), tissue hypoxia and tolerance to hypoxia were evaluated. At each time point, mice with adequate systolic blood pressure (BP) were counted as survived and mice with severe hypotension (BP≤60 mmHg) were counted as non-survived and were euthanized.
# MAP (mean arterial pressure) and heart rate (HR) were recorded continuously from Carotid catheter. Hct was measured from centrifuged arterial blood samples taken in heparinized capillary tubes. Arterial blood was collected in heparinized glass capillaries (50 μL) and immediately analyzed for PO2, PCO2, base excess, and pH. Arterial Hb saturations were measured using a CO-Oximeter.
# High resolution non-invasive microvascular PO2 measurements were made using phosphorescence quenching microscopy (PQM). Tissue PO2 was measured in regions in between functional capillaries (Yalcin & Cabrales 2012). Hb O2 saturations in the microcirculation are calculated using the O2 equilibrium curves measured.
# Tissue hypoxia was studied via immunohistochemistry staining for pimonidazole bound to hypoxic zones in vital tissues. Mice received a bolus intraperitoneal injection (IP) injection of the hypoxic marker Hypoxyprobe-1 (pimonidazole 40 mg/kg) and 5 mg/kg Hoechst 33342 diluted in PBS (total volume, 100 μL). At the end of the study, mice were euthanized and tissues extracted for histology. Sections are stained with monoclonal antibody against pimonidazole. Images for pimonidazole antibody-stained areas and Hoechst were recorded. Results are reported as the ratio of pimonidazole stained area to the total cellular area by co-localization of pimonidazole and Hoechst.
# [3] = tested on: mice with bleomycin-induced fibrosis; test: Bleomycin induced mouse model of hypoxemia and pulmonary fibrosis; assay type: in vivo
# Protocol: Forty-eight C57B/L6 male mice aged 7-8 weeks were obtained from Simonsen Laboratory, Gilroy, Calif. The mice were ear tagged and weighed prior to the start of the study. The animals were distributed into four groups with twelve animals in each group. Body weights of all mice were recorded daily during the study. Animals in groups 2, 3 and 4 were administered 3 U/kg bleomycin sulfate USP (Teva Pharmaceuticals) via oropharyngeal route […] (see Walters, D. M. and S. R. Kleeberger (2008). “Mouse models of bleomycin-induced pulmonary fibrosis.” Curr Protoc Pharmacol Chapter 5: Unit 5 46.) Animals in group 1 were administered normal saline via oropharyngeal route.
# Compound 1 (formulated in dimethylacetamide: polyethylene glycol 400 (PEG400): 40% cavitron at a 1:5:4 ratio) was administered at either low dose (first day 50 mg/kg followed by 40 mg/kg daily) or high dose (first day 150 mg/kg followed by 85 mg/kg daily) via oral gavage to bleomycin treated mice once daily from day 8 to day 15. Animals in group 1 were administered vehicle via oral gavage. The dosing volume was 200 μL. The study animals were sacrificed on day 15 at 4 hours post final dose.
# Samples for hemoximetry and pharmacokinetics (PK) were taken 4 hours following the last dose of the dosing regimen. BAL fluid was collected from the lungs of the animals by lavaging the lung with 1 ml Hanks balanced salt media (HBSS). Lungs were harvested from each animal and weighed. They were then inflated by ˜0.5 mL of 10% NBF and fixed in a formalin container for subsequent histopathological analysis.
# Hypoxia is a feature of IPF, and oxygen saturation measurements are often used clinically to evaluate the presence and severity of hypoxia. Responses to hypoxia in mice treated with Compound 1 were first evaluated by measuring arterial oxygen saturation (SaO2). On day 7 and 14 after bleomycin or saline instillation, 50 μL of arterial blood from the tail artery were used for measurement of arterial oxygen saturation (SaO2) using whole blood GEM OPL co-oximeter (Instrumentation Laboratory, MA). An additional aliquot of 100 μL of blood were collected from tail artery and arterial blood gases using the i-STAT Handheld Blood Analyzer (ABBOTT) were measured using CG4+ cartridges. For each mouse, SaO2 and arterial oxygen tension (pO2) were measured. […] In contrast, arterial oxygenation levels of vehicle treated mice further declined throughout the study (FIG. 4C). The arterial blood gases (ABG) were also analyzed on day 7 and day 14 (FIG. 4C). Data are expressed as means±SEM. […] In vehicle-treated bleomycin mice the pO2 reached a further decline at day 14.
# In this bleomycin model, mice develop extensive pulmonary fibrosis as well as pulmonary inflammation; thus, the effect of Compound 1 treatment on the phenotype of pulmonary inflammatory cells was examined. The BAL fluid was centrifuged at 1,000 rpm at 4° C. for 5 minutes. The BAL cell pellets were suspended in 2 mls of 1× Pharmalyse buffer (BD Bioscience) to lyse the RBCs. PBS+2% FBS were added to stop the lysis reaction and cells centrifuged again. Leukocytes in the cell pellet were counted using a hemocytometer and the trypan blue exclusion method.
# Pulmonary fibrosis was induced by administering mice a single dose of bleomycin. Collagen content of was determined by quantifying total soluble collagen in the BALF supernatant using the Sircol collagen dye binding assay according to the manufacturer's instructions (Biocolor Ltd, Carrick Fergus, UK).
# Lungs were harvested from each animal and weighed at Day 15.
# The histopathological analysis was conducted at Seventh Wave Laboratories, Chesterfield, Mo. The lung samples were processed and embedded with all lobes from each mouse in one paraffin block. Coronal sections through the four major lobes were stained with Masson's Trichrome. For each animal, consecutive lung fields were examined in a raster pattern using a 20× objective lens and a 10× or 40× ocular lens (200× or 800×). […]
smiles,measurement,setting,value
"O=Cc1c(O)cccc1OC[C@@H]1CCCCN1C(=O)c1cccnc1 [Compound 1, (S)-2-hydroxy-6-((1-nicotinoylpiperidin-2-yl)methoxy)benzaldehyde]",anti-inflammatory activity (TNF-α and IL-6 production),[1],anti-inflammatory activity
same,survival,[2]; 70 mg/kg,16%
same,survival,[2]; 140 mg/kg,83%
same,arterial blood pH,[2]; during 10% and 5% O2 hypoxia,normal during hypoxia
same,arterial blood oxygen saturation (SaO2),"[2]; during hypoxia, 70 or 140 mg/kg oral, vs control",dose-dependently increased SaO2 relative to control
same,heart rate (HR),"[2]; during hypoxia, vs control",sustained higher
same,mean arterial pressure (MAP),"[2]; during hypoxia, vs control",sustained higher mean BP
same,blood lactate levels,"[2]; extreme hypoxia (5% O2), vs control",reduced lactate levels relative to control
same,hypoxic tissues positively stained by pimonidazole,"[2]; extreme hypoxia, vs control",reduced hypoxic tissues positively stained by pimonidazole relative to control
same,arterial blood partial pressure of O2 (PaO2),"[2]; stepwise hypoxia, 70 or 140 mg/kg oral",the PaO2 was the same in Compound 1-treated and control mice
same,arterial oxygen tension (pO2),[3]; day 14,tendency for an increase pO2 or prevention of further decline of pO2
same,arterial oxygen saturation (SaO2),"[3]; day 14, after seven consecutive days of treatment, low and high dose",return toward control values
same,improvement of overall Ashcroft scores,"[3]; day 15, P<0.01",approximately 50%
same,"collagen protein (total soluble collagen in BALF supernatant, Sircol)","[3]; day 15, P<0.05",significant reduction in collagen protein in the lungs
same,total inflammatory cells recovered in BAL fluid,"[3]; day 15, P<0.05",significant reduction in total inflammatory cells recovered in BAL fluid
same,lung weight,"[3]; day 15, vs bleomycin vehicle control, P<0.01",significantly heavier than lungs from Compound 1-treated mice
same,collagen deposition (Masson's trichrome histology),"[3]; day 15 lung sections, low and high dose",diminished collagen deposition
